Key:
H1299 and PC9 cells [1] = assay: Cell cycle distribution analysis (PI staining, flow cytometry); assay type: cell-based, human
Experimental: Both H1299 and PC9 cells were enzymatically dissociated using TrypLE (#12605-010; Thermo Fisher Scientific), collected by centrifugation at 2,000×g for 2 minutes, resuspended in PBS, fixed in 70% ethanol, and stored overnight at 4° C. Fixed cells were pelleted, washed twice with PBS, resuspended in FxCycle propidium iodide (PI)/RNase staining solution (#F10797; Thermo Fisher Scientific), and incubated in the dark at 37° C. for 30 minutes. Flow cytometry was performed using a FACS-LSR Fortessa flow cytometer (BD Biosciences, Santa Clara, CA, USA).

H1299 and PC9 cells [2] = assay: Apoptotic cell death assay (Annexin V/PI staining); assay type: cell-based, human; details: 5 μM TST or siFOXM1
Experimental: H1299 and PC9 cells (1×10^5) were cultured in 6-well plates, transfected with siFOXM1 or NC siRNA or treated with 5 μM TST or dimethyl sulfoxide (DMSO), and then stained using fluorescein isothiocyanate (FITC) Annexin V Apoptosis Detection Kit I (#556547; BD Biosciences). Cells were analyzed within 1 hour to reduce side effects due to staining, and flow cytometry was performed using a FACSVerse cell analyzer (BD Biosciences).

FOXM1 = target: T1, FOXM1 (Homo sapiens, UniProt Q08050); assay: FOXM1 protein levels and nuclear translocation (nuclear cytoplasmic fractionation, Western blot, ICC); assay type: cell-based; details: for FOXM1 overexpression decreased by: TST-treated cells; for restoration of FOXM1 levels by overexpression of FOXM1 in treated cells: compared to mock transfection
T1 construct: FLAG; expressed in transfected cells; host or cells: H1299 and PC9 cells
T1 sequence (Q08050 1-748 isoform Q08050-2): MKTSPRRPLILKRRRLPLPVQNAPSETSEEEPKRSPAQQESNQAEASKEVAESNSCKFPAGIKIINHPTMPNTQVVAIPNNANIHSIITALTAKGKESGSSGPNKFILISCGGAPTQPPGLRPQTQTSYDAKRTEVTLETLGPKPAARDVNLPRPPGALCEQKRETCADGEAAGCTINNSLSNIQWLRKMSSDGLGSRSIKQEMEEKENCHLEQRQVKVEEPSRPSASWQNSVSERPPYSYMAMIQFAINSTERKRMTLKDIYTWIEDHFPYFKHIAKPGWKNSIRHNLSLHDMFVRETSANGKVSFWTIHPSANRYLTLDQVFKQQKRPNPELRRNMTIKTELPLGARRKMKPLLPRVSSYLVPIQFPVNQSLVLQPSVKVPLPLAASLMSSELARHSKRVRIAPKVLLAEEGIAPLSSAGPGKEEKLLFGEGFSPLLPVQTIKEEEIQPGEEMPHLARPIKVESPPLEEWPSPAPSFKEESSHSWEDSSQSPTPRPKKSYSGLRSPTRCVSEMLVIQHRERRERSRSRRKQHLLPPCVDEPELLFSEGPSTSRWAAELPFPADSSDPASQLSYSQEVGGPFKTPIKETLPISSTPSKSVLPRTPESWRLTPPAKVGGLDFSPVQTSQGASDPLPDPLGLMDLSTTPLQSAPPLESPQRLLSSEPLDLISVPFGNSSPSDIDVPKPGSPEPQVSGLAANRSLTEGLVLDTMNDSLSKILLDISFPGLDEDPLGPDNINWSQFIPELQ
Experimental: To confirm protein subcellular localization, lysis of H1299 and PC9 cell pellets was performed in Buffer A (10 mM HEPES, 10 mM KCl, 1.5 mM MgCl2, 0.5 mM dithiothreitol (DTT), and 0.05% IGEPAL CA-630 (pH 7.9)) for 10 minutes. The Buffer A lysate was centrifuged at 1,000×g for 10 minutes at 4° C. to collect the nuclear fraction. After removal of the cytosolic fraction, buffer B containing 5 mM HEPES, 0.2 mM EDTA, 1.5 mM MgCl2, 0.5 mM DTT, and 26% glycerol (v/v) (pH 7.9) was added to the nuclear fraction and lysed on ice for 30 minutes.
(§1) Cells were lysed in RIPA buffer supplemented with complete mini protease inhibitor cocktail (#04693124001; Roche, Basel, Switzerland) and kept on ice for 30 minutes. Equal amounts of protein were evenly loaded and analyzed by sodium dodecyl sulfate-polyacrylamide gel electrophoresis (SDS-PAGE), and transferred to polyvinylidene difluoride (PVDF) membranes (#IPVH 00010; Millipore, Billerica, MA, USA) at 100 V for 1 hour. Primary antibodies (Santa Cruz Biotechnology, Texas, USA) specific for FOXM1 (#sc-271746), cyclin E1 (#sc-481), α-tubulin (#sc-8035), and β-actin (#sc-47778); PD-L1 (#13684S), cyclin D1 (#2978S), cyclin B1 (#4138S), c-MYC (#5605S), and poly(ADP-ribose) polymerase (PARP, #9542S; Cell Signaling Technology, Beverly, MA, USA) were used to probe proteins of interest. A horseradish-peroxidase-conjugated secondary antibodies specific to the primary antibody was used to detect proteins using pico-enhanced chemiluminescence substrate (#34577; Thermo Fisher Scientific).
(§2) Cells were fixed in 4% paraformaldehyde (#30525-89-4; FUJIFILM Wako Chemical, Wako, Japan) for 15 minutes and blocked with 1% bovine serum albumin (BSA) in phosphate-buffered saline-0.01% Tween-20 (PBS-T) to reduce nonspecific antibody binding. Cells were then incubated overnight with an anti-PD-L1 antibody (#14598382; eBioscience, San Diego, CA, USA) diluted 1:200 and an anti-FOXM1 antibody (#sc-271746; Santa Cruz Biotechnology) diluted 1:50, followed by incubation with an Alexa Fluor 488-labeled secondary antibody (#A11029; Thermo Fisher Scientific) for 1 hour. Nuclei were stained with Hoechst 33342. After incubation, cells were washed with PBS and mounted on glass slides using Prolong Glass Antifade mounting medium (#P36982; Thermo Fisher Scientific). Confocal microscopy was performed using a Zeiss 730 Meta microscope (Carl Zeiss, Oberkochen, Germany) and analyzed using Axiovision software (Carl Zeiss).

PD-L1 = PD-L1 expression on cell membrane of H1299 and PC9 cells (immunocytochemistry, Western blot); assay type: cell-based, human; details: for PD-L1 expression restoration on the cell membrane by FOXM1 overexpression, by: TST 5 μM 48 hours in the presence of IFNγ; for reduction in the PD-L1 levels (cell membrane): TST in the presence of IFNγ, vs DMSO control
Experimental: as §1, §2

[3] = vs NC siRNA or DMSO-treated group, time-dependent

thiostrepton [TST]
G2 population (H1299 and PC9 cells [1]; both cell lines, vs DMSO-treated group): an increase in the G2 population
S phase population (H1299 and PC9 cells [1]; [3]): decreased a S phase population
sub-G0/G1 population (H1299 and PC9 cells [1]; [3]): increased the sub-G0/G1 population
apoptotic cell population (annexin V/PI positive cells) (H1299 and PC9 cells [2]): significantly increased in a time-dependent manner
FOXM1 overexpression decreased by (FOXM1; H1299): 63.7%
restoration of FOXM1 levels by overexpression of FOXM1 in treated cells (FOXM1; H1299): 84.33%
protein levels and nuclear translocation of FOXM1 (FOXM1; H1299 and PC9, TST 5 μM in the presence of IFN-γ 20 ng mL-1, or siFOXM1): decreased the protein levels and nuclear translocation of FOXM1
FOXM1 overexpression decreased by (FOXM1; PC9): 44%
restoration of FOXM1 levels by overexpression of FOXM1 in treated cells (FOXM1; PC9): 57.56%
elevated level of PD-L1 by pFLAG-FOXM1 overexpression decreased to (PD-L1; H1299): 41.9%
PD-L1 expression restoration on the cell membrane by FOXM1 overexpression, by (PD-L1; H1299): 38.7%
reduction in the PD-L1 levels (cell membrane) (PD-L1; H1299): 87.23%
elevated level of PD-L1 by pFLAG-FOXM1 overexpression decreased to (PD-L1; PC9): 68.0%
PD-L1 expression restoration on the cell membrane by FOXM1 overexpression, by (PD-L1; PC9): 46%
reduction in the PD-L1 levels (cell membrane) (PD-L1; PC9): 85.82%

From US20260248881A1, “PHARMACEUTICAL COMPOSITION COMPRISING FOXM1 INHIBITOR AND IMMUNE CHECKPOINT INHIBITOR FOR PREVENTING OR TREATING CANCER” (National Cancer Center, priority 2022, published 2026)
